{"source": "patent US20240209456A1", "about": "“METHODS AND COMPOSITIONS RELATED TO CELL-CYCLE RNA's” (BETH ISRAEL DEACONESS MEDICAL CENTER, priority 2021, published 2024)", "assay_type_in_all_cases": "cell-based, human", "key": {"c-MYC SPEARs": {"system": "c-MYC SPEARs", "experiment": "qRT-PCR / strand-specific qRT-PCR of c-MYC SPEARs", "settings": "for c-MYC SPEARs level upon transcription inhibitors: HL-60, DRB and ActD, FIG. 10C; for response of total c-MYC SPEARs: HL-60 released from double thymidine block, 2 hrs, MG149 200 μM, TH1834 500 μM", "procedure": "(§1) Total RNA isolation was carried out and all RNA samples used in this study were treated with DNase I (10 U of DNase I per 3 μg of total RNA; 37° C. for one hour; in the presence of RNase inhibitor). After DNase I treatment, RNA samples were extracted with acidic phenol (pH 4.3) to eliminate any remaining traces of DNA. cDNA syntheses were performed with Random Primers (Invitrogen) or gene-specific primers with Transcriptor Reverse Transcriptase (Roche Applied Science) according to the manufacturer's recommendation. cDNA was purified with a High Pure PCR Product Purification Kit (Roche Applied Science).\n(§2) Sybr green reaction was performed using iQ Sybr Green supermix (Biorad, Hercules, CA) using the following parameters: 95° C. (10 min), 40 cycles of 95° C. (15 s) and 60° C. (1 min) 72° C. (1 min). TaqMan analysis was performed using Hotstart Probe One-step qRT-PCR master mix (USB) at the following conditions: 50° C. (10 min.), 95° C. (2 min.), and then 40 cycles of 95° C. (15 sec.) and 60° C. (60 sec.).\nPrimers used for strand-specific real-time RT PCR (Sybr): Reverse Transcriptase primer for c-MYC SPEARs: 5′-AACCGCATCCTTGTCCTGTGAGTA-3′ (SEQ ID NO: 1); PCR primers: Forward: 5′-ACAGGCAGACACATCTCAGGGCTA-3′ (SEQ ID NO: 2); Reverse: 5′-ATAGGGAGGAATGATAGAGGCATA-3′ (SEQ ID NO: 3); and Reverse Transcriptase primer for PU1 SPEARs: 5′-GGCTTTTGCTCTAACCCAAC-3′ (SEQ ID NO: 4); PCR primers: Forward: 5′-ACTATGCTGAAGACCCTACAC-3′ (SEQ ID NO: 5); Reverse: 5′-GCTCTAACCCAACAAATGCC-3′ (SEQ ID NO: 6).\nNascent RNA/DNA capture was performed using Click-iT Nascent RNA Capture Kit (ThermoFisher) according to the manufacturer's instructions with minor modifications. Briefly, 1. Labeling the cells with EU/EdU. 200 mM EU or 30 mM EdU stock solutions were added to the cells, to a final concentration 0.5 mM or 30 μM, respectively. 2. Incubation. The cells were incubated for 1 or 2 hours. 3. RNA/DNA isolation. The cells were harvested and the RNA/DNA were isolated and dissolved in 14 μL of H2O. 4. Biotinylation of RNA/DNA by Click reaction. Click-iT reaction cocktail (50 μL per reaction) was prepared accordingly to manufacturer's instructions: a mixture containing 1× Click-iT EU buffer; 2 mM CuSO4; 1 mM Biotin azide; 13.25 μL of the isolated RNA; 10 mM Click-iT reaction buffer additive 1; 12 mM Click-iT reaction buffer additive 2 was prepared. After adding each component, the reaction cocktail was gently mixed by vortexing. The addition of the Click-iT reaction buffer additive 1 stock initiates the click reaction between the EU-RNA/EdU-DNA and biotin azide. Afterwards the Click-iT® reaction buffer additive 2 is added and incubated for 30 minutes with gentle vortexing. 5. RNA/DNA precipitation. […]"}, "PU.1 SPEARs": {"system": "PU.1 SPEARs", "experiment": "qRT-PCR / strand-specific qRT-PCR of PU.1 SPEARs", "settings": "HL-60, DRB and ActD, FIG. 10C", "procedure": "as §1\nas §2, with “sec.). […]” for “sec.).”"}, "acH2A.Z": {"system": "acH2A.Z", "experiment": "Western blot of total proteins, acH2A.Z normalized by H2A.Z", "settings": "HL-60, 2 hours; 200 μM MG149, 500 μM TH1834", "procedure": "Whole-cell lysates from approximately 0.2×10^6 cells per each sample were separated on 12% SDS-PAGE gels and transferred to a nitrocellulose membrane. Immunoblots were stained overnight at 4° C. with the following primary antibodies: H2A.Z (1:2,000; Abcam ab4174), H2A.Z acetyl (K4+K7+K11) (1:2,000; Abcam ab18262) or TIP60 (1:1000; generous gift from Bruno Amati). All secondary horseradish peroxidase (HRP)-conjugated antibodies were diluted 1:5,000 and incubated for 1 hr at room temperature with TBST/5% BSA. Immuno-reactive proteins were detected using the Pierce® ECL system (Thermo Scientific #32106)."}}, "note": "*1 amine or outer side, *2 acyl side, *3 side chain or, on linkers, in order; H or OH if unused. Where a SMILES comes first, the peptide text is derived from it. Bridges are numbered along the chain shown (N, C = ends). Roman numbers before positions name the chains, in order. [ ]: non-standard residue; d: D form. Actinocin(9to1) = Cc1c2oc3c(C)ccc(C(=O)[*:1])c3nc-2c(C(=O)[*:2])c(N)c1=O; NMeV = CN[C@H](C(=O)O)C(C)C; Sar = CNCC(=O)O", "data": [{"smiles": "Cc1c2oc3c(C)ccc(C(=O)N[C@@H]4C(=O)N[C@H](C(C)C)C(=O)N5CCC[C@H]5C(=O)N(C)CC(=O)N(C)[C@@H](C(C)C)C(=O)O[C@@H]4C)c3nc-2c(C(=O)N[C@@H]2C(=O)N[C@H](C(C)C)C(=O)N3CCC[C@H]3C(=O)N(C)CC(=O)N(C)[C@@H](C(C)C)C(=O)O[C@@H]2C)c(N)c1=O", "note": "[ActD, Actinomycin D] (I: T[dV]P[Sar][NMeV] / II: T[dV]P[Sar][NMeV]; ester I:1-I:C, II:1-II:C; linker I:N-II:N via Actinocin(9to1))", "values": [{"measurement": "c-MYC SPEARs level upon transcription inhibitors", "setting": "c-MYC SPEARs", "value": "negatively affected"}, {"measurement": "PU.1 SPEARs level upon transcription inhibitors", "setting": "PU.1 SPEARs", "value": "negatively affected"}]}, {"smiles": "OC[C@H]1O[C@@H](n2cnc3cc(Cl)c(Cl)cc32)[C@H](O)[C@@H]1O", "note": "[DRB, 5,6-Dichlorobenzimidazole 1-β-D-ribofuranoside]", "values": [{"measurement": "c-MYC SPEARs level upon transcription inhibitors", "setting": "c-MYC SPEARs", "value": "negatively affected"}, {"measurement": "PU.1 SPEARs level upon transcription inhibitors", "setting": "PU.1 SPEARs", "value": "negatively affected"}]}, {"smiles": "CCCCCCCc1ccc(CCc2cccc(O)c2C(=O)O)cc1", "note": "[MG149]", "values": [{"measurement": "response of total c-MYC SPEARs", "setting": "c-MYC SPEARs", "value": "not affected"}, {"measurement": "level of acH2A.Z normalized by H2A.Z", "setting": "acH2A.Z", "value": "Reduction"}]}, {"smiles": "O=C(O)Cn1nnc(-c2ccc(CN(CCCCOc3ccc(CN4CCCC4)cc3)CCc3ccccc3)cc2)n1", "note": "[TH1834]", "values": [{"measurement": "response of total c-MYC SPEARs", "setting": "c-MYC SPEARs", "value": "not affected"}, {"measurement": "level of acH2A.Z normalized by H2A.Z", "setting": "acH2A.Z", "value": "Reduction"}]}]}
